What was measured:
KCHSC [1] = assay: Herbicidal pre-emergence action - Part I; assay type: in vivo, Kochia scoparia; details: Table A10a, 1280 g/ha, visual grading after ca. 3 weeks vs untreated controls
Excerpt: (§1) Seeds of mono- and dicotyledonous weed plants were sown in plastic pots (double sowings with one species of mono- and one species of dicotyledonous weed plants per pot), in sandy loam, and covered with soil. The compounds according to the invention, formulated in the form of wettable powders (WP) or as emulsifiable concentrates (EC), were applied to the surface of the covering soil as aqueous suspension or emulsion, with the addition of 0.5% of an additive, at an application rate of 600 1 of water per hectare (converted). Following treatment, the pots were placed in a greenhouse and kept under optimum growth conditions for the test plants. The visual grading of the damage to the test plants was carried out after ca. 3 weeks in comparison to untreated controls (herbicidaleffectinpercent(%):100%effect=plantshavediedoff,0%effect=ascontrolplants). [formula]
(§2) Tables A1 to A12, below, show the effects of selected compounds of the general formula (I) according to table 1 on various harmful plants and an application rate corresponding to 1280 g/ha or below obtained by the experimental procedure mentioned above. Table A1: pre-emergence activity at 1280g/ha against ABUTH in %

MATIN [2] = assay: Herbicidal pre-emergence action - Part I; assay type: in vivo, Matricaria inodora; details: 1280 g/ha, visual grading after ca. 3 weeks vs untreated controls
Excerpt: as §1, §2

STEME [3] = assay: Herbicidal pre-emergence action - Part I; assay type: in vivo, Stellaria media; details: visual grading after ca. 3 weeks vs untreated controls
Excerpt: as §1, §2

STEME [4] = assay: Herbicidal post-emergence action - Part I; assay type: in vivo, Stellaria media; details: one-leaf stage, rated visually after about 3 weeks vs untreated controls
Method: (§3) Seeds of mono- and dicotyledonous weed plants were placed in plastic pots in sandy loam soil (doubly sown with in each case one species of mono- or dicotyledonous weed plants per pot), covered with soil and cultivated in a greenhouse under controlled growth conditions. 2 to 3 weeks after sowing, the test plants were treated at the one-leaf stage. The compounds of the invention, formulated in the form of wettable powders (WP) or as emulsion concentrates (EC), were applied onto the green parts of the plants as aqueous suspension or emulsion with addition of 0.5% additive at a water application rate of 600 liters per hectare (converted). After the test plants had been kept in the greenhouse under optimum growth conditions for about 3 weeks, the activity of the preparations was rated visually in comparison to untreated controls. For example, 100% activity = the plants have died, 0% activity = like control plants. Tables B1 to B12, below, show the effects of selected compounds of the general formula (I) according to table 1 on various harmful plants and an application rate corresponding to 1280 g/ha or below obtained by the experimental procedure mentioned above. Table B1a: post-emergence activity at 1280g/ha against ABUTH in %

SETVI [5] = assay: Herbicidal pre-emergence action - Part I; assay type: in vivo, Setaria viridis; details: visual grading after ca. 3 weeks vs untreated controls
Excerpt: as §1, §2

AMARE [6] = assay: Herbicidal post-emergence action - Part I; assay type: in vivo, Amaranthus retroflexus; details: 1280 g/ha, one-leaf stage, rated visually after about 3 weeks vs untreated controls
Method: as §3

ECHCG [7] = assay: Herbicidal pre-emergence action - Part I; assay type: in vivo, Echinochloa crus-galli; details: visual grading after ca. 3 weeks vs untreated controls
Excerpt: as §1, §2

AMARE [8] = assay: Herbicidal pre-emergence action - Part I; assay type: in vivo, Amaranthus retroflexus; details: visual grading after ca. 3 weeks vs untreated controls
Excerpt: as §1, §2

DIGSA = assay: Herbicidal pre-emergence action - Part I; assay type: in vivo, Digitaria sanguinalis; details: visual grading after ca. 3 weeks vs untreated controls
Excerpt: as §1, §2

POAAN [9] = assay: Herbicidal pre-emergence action - Part I; assay type: in vivo, Poa annua; details: visual grading after ca. 3 weeks vs untreated controls
Excerpt: as §1, §2

LOLRI = assay: Herbicidal pre-emergence action - Part I; assay type: in vivo, Lolium rigidum; details: 1280 g/ha, visual grading after ca. 3 weeks vs untreated controls
Excerpt: as §1, §2

KCHSC [10] = assay: Herbicidal post-emergence action - Part I; assay type: in vivo, Kochia scoparia; details: 1280 g/ha, one-leaf stage, rated visually after about 3 weeks vs untreated controls
Method: as §3

POAAN [11] = assay: Herbicidal post-emergence action - Part I; assay type: in vivo, Poa annua; details: 1280 g/ha, one-leaf stage, rated visually after about 3 weeks vs untreated controls
Method: as §3

VERPE [12] = assay: Herbicidal post-emergence action - Part I; assay type: in vivo, Veronica persica; details: 1280 g/ha, one-leaf stage, rated visually after about 3 weeks vs untreated controls
Method: as §3

SETVI [13] = assay: Herbicidal post-emergence action - Part I; assay type: in vivo, Setaria viridis; details: 1280 g/ha, one-leaf stage, rated visually after about 3 weeks vs untreated controls
Method: as §3

ECHCG [14] = assay: Herbicidal post-emergence action - Part I; assay type: in vivo, Echinochloa crus-galli; details: one-leaf stage, rated visually after about 3 weeks vs untreated controls
Method: as §3

PHBPU = assay: Herbicidal post-emergence action - Part II; assay type: in vivo, Pharbitis purpurea
Excerpt: (§4) Seeds of mono- and dicotyledonous weed plants and crop plants were sown, in plastic or organic planting pots, in sandy loam, covered with soil and grown in a greenhouse under controlled growth conditions. 2 to 3 weeks after sowing, the test plants were sprayed in the single-leaf stage. The compounds according to the invention, formulated in form of wettable powders (WP) or as emulsifiable concentrates (EC), were sprayed onto the green plant parts as aqueous suspension or emulsion, with the addition of 0.5% of an additive, at an application rate of 600 1 of water/ha (converted). The test plants were placed in the greenhouse for ca. 3 weeks under optimum growth conditions, and then the effect of the preparations was assessed visually in comparison with untreated controls (herbicidal effect in percent (%): 100% effect = plants have died off, 0% effect = as control plants). Tables E1 to E10 below show the effects of selected compounds of the general formula (I) according to table 1 on various harmful plants and an application rate corresponding to 320 g/ha or below obtained by the experimental procedure mentioned above. Table E1a: post-emergence activity at 5g/ha against ABUTH in %

VIOTR = assay: Herbicidal post-emergence action - Part II; assay type: in vivo, Viola tricolor; details: 20 g/ha; Table E9b
Excerpt: as §4

SETVI [15] = assay: Herbicidal post-emergence action - Part II; assay type: in vivo, Setaria viridis; details: 20 g/ha; Table E7b
Excerpt: as §4

TRZAS = assay: Post-emergence effects on crop plants; assay type: in vivo, Triticum aestivum; details: 5 g/ha; Table F2a; crop plant
Excerpt: as §4, with “F1” for “E1”, “F5” for “E10”, “crop” for “harmful”, “[…]:” for “E1a:”, “ZEAMX” for “ABUTH”

ZEAMX = assay: Post-emergence effects on crop plants; assay type: in vivo, Zea mays; details: 5 g/ha; Table F1a; crop plant
Excerpt: as §4, with “F1” for “E1”, “F5” for “E10”, “crop” for “harmful”, “[…]:” for “E1a:”, “ZEAMX” for “ABUTH”

AMARE [16] = assay: Herbicidal post-emergence action - Part II; assay type: in vivo, Amaranthus retroflexus
Excerpt: as §4

ABUTH = assay: Herbicidal post-emergence action - Part II; assay type: in vivo, Abutilon theophrasti
Excerpt: as §4

MATIN [17] = assay: Herbicidal post-emergence action - Part II; assay type: in vivo, Matricaria inodora; details: 20 g/ha; Table E4b
Excerpt: as §4

VERPE [18] = assay: Herbicidal post-emergence action - Part II; assay type: in vivo, Veronica persica; details: 20 g/ha; Table E8b
Excerpt: as §4

Row | SMILES | pre-emergence activity at 1280g/ha against KCHSC in % (KCHSC [1]) | pre-emergence activity at 1280g/ha against MATIN in % (MATIN [2]) | pre-emergence activity at 320g/ha against STEME in % (STEME [3]) | pre-emergence activity at 1280g/ha against STEME in % (STEME [3]) | pre-emergence activity at 1280g/ha and against SETVI in % (SETVI [5]) | post-emergence activity at 1280g/ha against AMARE in % (AMARE [6]) | pre-emergence activity at 1280g/ha against ECHCG in % (ECHCG [7]) | pre-emergence activity at 1280g/ha against AMARE in % (AMARE [8]) | pre-emergence activity at 1280g/ha against DIGSA in % (DIGSA) | pre-emergence activity at 320g/ha and against POAAN in % (POAAN [9]) | pre-emergence activity at 1280g/ha and against POAAN in % (POAAN [9]) | pre-emergence activity at 1280g/ha against LOLRI in % (LOLRI) | post-emergence activity at 1280g/ha against KCHSC in % (KCHSC [10]) | post-emergence activity at 1280g/ha against POAAN in % (POAAN [11]) | post-emergence activity at 1280g/ha against VERPE in % (VERPE [12]) | post-emergence activity at 1280g/ha against ECHCG in % (ECHCG [14]) | further results
1 | O=C1N(Cc2c(F)cccc2F)CCC12CC(c1ccccc1F)=NO2 (racemic) [Compound I-27, 7-(2,6-Difluorobenzyl)-3-(2-fluorophenyl)-1-oxa-2,7-diazaspiro[4.4]non-2-en-6-one] | 90% | 90% | 90% | 90% | 90% | 90% | 100% | 90% | 90% | 100% | 100% |  |  |  |  |  | post-emergence activity at 320g/ha against STEME in % (STEME [4]; 320 g/ha): 90%; post-emergence activity at 1280g/ha against STEME in % (STEME [4]; 1280 g/ha): 90%; pre-emergence activity at 320g/ha against AMARE in % (AMARE [8]; 320 g/ha): 90%
2 | Cc1ccsc1C1=NOC2(CCN(Cc3ccccc3F)C2=O)C1 (racemic) [Compound I-17, 7-(2-Fluorobenzyl)-3-(3-methyl-2-thienyl)-1-oxa-2,7-diazaspiro[4.4]non-2-en-6-one] |  | 90% | 90% | 100% | 100% |  | 90% | 90% |  |  | 100% | 100% | 90% |  |  |  | pre-emergence activity at 80g/ha against STEME in % (STEME [3]; 80 g/ha): 90%
3 | Cc1ccsc1C1=NOC2(CCCN(Cc3cccc(F)c3F)C2=O)C1 (racemic) [Compound I-3, 7-(2,3-Difluorobenzyl)-3-(3-methyl-2-thienyl)-1-oxa-2,7-diazaspiro[4.5]-dec-2-en-6-one] | 90% | 90% | 90% | 90% | 100% | 90% | 100% | 90% | 100% | 100% | 100% | 100% | 90% | 90% | 90% | 90% | pre-emergence activity at 320g/ha and against SETVI in % (SETVI [5]; 320 g/ha): 100%; pre-emergence activity at 320g/ha against ECHCG in % (ECHCG [7]; 320 g/ha): 100%; pre-emergence activity at 320g/ha against DIGSA in % (DIGSA; 320 g/ha): 90%; post-emergence activity at 1280g/ha against SETVI in % (SETVI [13]): 90%; post-emergence activity at 320g/ha against ECHCG in % (ECHCG [14]; 320 g/ha): 90%
4 | Cc1ccccc1CN1CCCC2(CC(c3sccc3C)=NO2)C1=O (racemic) [Compound I-4, 7-(2-Methylbenzyl)-3-(3-methyl-2-thienyl)-1-oxa-2,7-diazaspiro[4.5]dec-2-en-6-one] |  |  |  |  | 90% | 90% |  |  |  | 100% | 100% |  |  | 90% | 90% | 90% | 
5 | Cn1c(C(F)(F)F)cc(=O)n(-c2cc(C3=NOC4(CCCNC4=O)C3)c(Cl)cc2F)c1=O (racemic) [Compound I-67] |  |  |  |  |  |  |  |  |  |  |  |  |  |  |  |  | post-emergence activity against PHBPU (PHBPU; 5 g/ha, Table E5a): 100%; post-emergence activity against PHBPU (PHBPU; 20 g/ha, Table E5b): 100%; post-emergence activity against VIOTR (VIOTR): 100%; post-emergence activity against SETVI (SETVI [15]): 80%; post-emergence activity against TRZAS (TRZAS): 20%; post-emergence activity against ZEAMX (ZEAMX): 20%; post-emergence activity against AMARE (AMARE [16]; 5 g/ha, Table E2a): 100%; post-emergence activity against AMARE (AMARE [16]; 20 g/ha, Table E2b): 100%; post-emergence activity against ABUTH (ABUTH; 5 g/ha, Table E1a): 80%; post-emergence activity against ABUTH (ABUTH; 20 g/ha, Table E1b): 100%; post-emergence activity against MATIN (MATIN [17]): 100%; post-emergence activity against VERPE (VERPE [18]): 80%

From patent EP4509511A1, “SUBSTITUTED SPIRO-ISOXAZOLINYL LACTAMS, SALTS THEREOF AND THEIR USE AS HERBICIDALLY ACTIVE SUBSTANCES” (Bayer Aktiengesellschaft, priority 2023, dated 2025)
